Laboratory results: ChEMBL document CHEMBL4392881, “Noursamycins, Chlorinated Cyclohexapeptides Identified from Molecular Networking of Streptomyces noursei NTR-SR4” (2019)
In brackets after ≈: the same amount, converted by molar mass.

How the values were obtained:
Staphylococcus aureus [1] = test: Antibacterial activity against mulitdrug-resistant Staphylococcus aureus JMRC:ST:33793 assessed as diameter of colonies in inhibition zone by agar diffusion test (reference value: 0 millimeter); assay type: functional
Penicillium chrysogenum [2] = test: Antifungal activity against Penicillium notatum JMRC:STI:50164 assessed as diameter of clear inhibition zone by agar diffusion test (reference value: 10 millimeter); assay type: functional
Mycolicibacterium phlei = test: Antibacterial activity against Mycobacterium phlei DSM 750 measured after 20 hrs; assay type: functional; settings: DSM 750, 20 h
[3] = system: Sporobolomyces salmonicolor; test: Antifungal activity against Sporobolomyces salmonicolor JMRC:ST:35974 assessed as diameter of colonies in inhibition zone by agar diffusion test (reference value: 10 millimeter); assay type: functional
Staphylococcus aureus [4] = test: Antibacterial activity against Staphylococcus aureus JMRC:ST:10760 assessed as diameter of clear inhibition zone by agar diffusion test (reference value: 0 millimeter); assay type: functional
Mycolicibacterium vaccae [5] = test: Antibacterial activity against Mycobacterium vaccae JMRC:STI:10670 assessed as diameter of clear inhibition zone by agar diffusion test (reference value: 0 millimeter); assay type: functional
Micrococcus luteus = test: Antibacterial activity against Micrococcus luteus DSM 1790 measured after 20 hrs; assay type: functional; settings: DSM 1790, 20 h
Staphylococcus aureus [6] = test: Antibacterial activity against mulitdrug-resistant Staphylococcus aureus JMRC:ST:33793 assessed as diameter of clear inhibition zone by agar diffusion test (reference value: 0 millimeter); assay type: functional
Enterococcus faecalis = test: Antibacterial activity against vancomycin-resistant Enterococcus faecalis JMRC:ST:33700 assessed as diameter of promotion of inhibition zone by agar diffusion test (reference value: 0 millimeter); assay type: functional
Escherichia coli [7] = test: Antibacterial activity against Escherichia coli JMRC:ST:33699 assessed as diameter of clear inhibition zone by agar diffusion test (reference value: 0 millimeter); assay type: functional
Bacillus subtilis [8] = test: Antibacterial activity against Bacillus subtilis JMRC:STI:10880 assessed as diameter of clear inhibition zone by agar diffusion test (reference value: 0 millimeter); assay type: functional
Bacillus subtilis [9] = test: Antibacterial activity against Bacillus subtilis DSM10 measured after 20 hrs; assay type: functional; settings: DSM10, 20 h
Candida albicans = test: Antifungal activity against Candida albicans JMRC:STI:25000 assessed as diameter of clear inhibition zone by agar diffusion test (reference value: 0 millimeter); assay type: functional
Pseudomonas aeruginosa [10] = test: Antibacterial activity against Pseudomonas aeruginosa JMRC:ST:337721 assessed as diameter of clear inhibition zone by agar diffusion test (reference value: 0 millimeter); assay type: functional
Escherichia coli [11] = test: Antibacterial activity against Escherichia coli DSM 1116 measured after 20 hrs; assay type: functional; settings: DSM 1116, 20 h
Pseudomonas aeruginosa [12] = test: Antibacterial activity against Pseudomonas aeruginosa JMRC:ST:33772 assessed as diameter of clear inhibition zone by agar diffusion test (reference value: 0 millimeter); assay type: functional
Salmonella typhimurium = test: Antibacterial activity against Salmonella typhimurium TA100 measured after 20 hrs; assay type: functional, Salmonella enterica subsp. enterica serovar Typhimurium; settings: Salmonella enterica, TA100, 20 h
Escherichia coli [13] = test: Antibacterial activity against Escherichia coli BW25113 measured after 20 hrs; assay type: functional; settings: BW25113, 20 h
Mycolicibacterium vaccae [14] = test: Antibacterial activity against Mycobacterium vaccae JMRC:STI:10670 assessed as diameter of colonies in inhibition zone by agar diffusion test (reference value: 0 millimeter); assay type: functional
Penicillium chrysogenum [15] = test: Antifungal activity against Penicillium notatum JMRC:STI:50164 assessed as diameter of colonies in inhibition zone by agar diffusion test (reference value: 10 millimeter); assay type: functional

Row | SMILES | diameter of the inhibition zone (DIZ) (Staphylococcus aureus [1]) [mm] | diameter of the inhibition zone (DIZ) (Penicillium chrysogenum [2]) [mm] | MIC (Mycolicibacterium phlei) [µg/mL] | diameter of the inhibition zone (DIZ) [3] [mm] | diameter of the inhibition zone (DIZ) (Staphylococcus aureus [4]) [mm] | diameter of the inhibition zone (DIZ) (Mycolicibacterium vaccae [5]) [mm] | MIC (Micrococcus luteus) [µg/mL] | diameter of the inhibition zone (DIZ) (Staphylococcus aureus [6]) [mm] | diameter of the inhibition zone (DIZ) (Enterococcus faecalis) [mm] | diameter of the inhibition zone (DIZ) (Escherichia coli [7]) [mm] | diameter of the inhibition zone (DIZ) (Bacillus subtilis [8]) [mm] | MIC (Bacillus subtilis [9]) [µg/mL] | diameter of the inhibition zone (DIZ) (Candida albicans) [mm] | diameter of the inhibition zone (DIZ) (Pseudomonas aeruginosa [10]) [mm] | MIC (Escherichia coli [11]) [µg/mL] | diameter of the inhibition zone (DIZ) (Pseudomonas aeruginosa [12]) [mm] | MIC (Salmonella typhimurium) [µg/mL] | MIC (Escherichia coli [13]) [µg/mL] | diameter of the inhibition zone (DIZ) (Mycolicibacterium vaccae [14]) [mm] | diameter of the inhibition zone (DIZ) (Penicillium chrysogenum [15]) [mm]
1 | CC[C@@H](C)[C@@H]1NC(=O)[C@@H](CC(C)C)NC(=O)[C@@H](C(C)C)NC(=O)[C@H](Cc2c[nH]c3ccc(Cl)cc23)NC(=O)[C@@H]([C@H](O)C(N)=O)NC(=O)[C@H](CCCN)NC1=O | 15 | 0 | 32 (≈ 40.5 µM) | 12 | 18 | 22 | 32 (≈ 40.5 µM) | 13 | 16 | 0 | 16 | 32 (≈ 40.5 µM) | 0 | 10 | ≥ 64 | 0 | 32 (≈ 40.5 µM) | ≥ 64 |  | 
2 | CC[C@@H](C)[C@@H]1NC(=O)[C@@H](Cc2ccccc2)NC(=O)[C@@H](C(C)C)NC(=O)[C@H](Cc2c[nH]c3ccc(Cl)cc23)NC(=O)[C@@H]([C@H](O)C(N)=O)NC(=O)[C@H](CCCN)NC1=O |  | 0 | 8 (≈ 9.7 µM) | 12 | 21 | 21 | 8 (≈ 9.7 µM) | 18 | 18 | 10 | 18 | 4 (≈ 4.85 µM) | 0 | 10 | ≥ 64 | 0 | 16 (≈ 19.4 µM) | ≥ 64 | 26 | 
3 | C[C@@H]1[C@H](O)[C@@H](C)/C=C/C=C/C=C/C=C/C=C/C=C/C=C/[C@H](O[C@@H]2O[C@H](C)[C@@H](O)[C@H](N)[C@@H]2O)C[C@@H]2O[C@](O)(C[C@@H](O)C[C@@H](O)[C@H](O)CC[C@@H](O)C[C@@H](O)CC(=O)O[C@H]1C)C[C@H](O)[C@H]2C(=O)O [AMPHOTERICIN B] |  |  |  | 18 |  |  |  |  |  |  |  |  | 20 |  |  |  |  |  |  | 19
4 | O=C(O)c1cn(C2CC2)c2cc(N3CCNCC3)c(F)cc2c1=O [CIPROFLOXACIN] |  |  | < 0.25 |  |  |  | < 0.25 |  | 17 |  |  | < 0.25 |  |  | < 0.25 |  | < 0.25 | < 0.25 | 21 | 
